Assay results published in patent US20230017045A1, “PYRIDINE AND PYRIMIDINE CARBOXYLATE HERBICIDES AND METHODS OF USE THEREOF” (Dow AgroSciences LLC, priority 2017, published 2023).
Where two headings read alike, the source gives them in different places.

Tested on: test plant species
Assay: Post-emergent herbicidal activity test (greenhouse, foliar spray, visual growth reduction)
Type: in vivo
Details: 140 g ai/ha; for Visual Growth Reduction (%) 14 Days After Application, SORVU: SORVU: johnsongrass (Sorghum vulgare); for pest or weed control at 140 g/ha: post-emergence, 336 h
Method in brief: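 Visual percent injury (0-100) rated 14 d after treatment, relative to nontreated and solvent-blank plants. Test plants at first or second true leaf stage received an overhead track-sprayer application at 187 L/ha. Compounds were formulated in aqueous acetone/DMSO carrier containing crop oil concentrate and X-77 surfactant.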

[1] = ALOMY: blackgrass (Alopecurus myosuroides), 14 days after application
[2] = AMARE: redroot pigweed (Amaranthus retroflexus), 14 days after application
[3] = AVEFA: wild oat (Avena fatua), 14 days after application
[4] = CHEAL: lambsquarters (Chenopodium album), 14 days after application
[5] = CIRAR: canada thistle (Cirsium arvense), 14 days after application
[6] = CYPES: yellow nutsedge (Cyperus esculentus), 14 days after application
[7] = DIGSA: crabgrass (Digitaria sanguinalis), 14 days after application
[8] = ECHCG: barnyardgrass (Echinochloa crus-galli), 14 days after application
[9] = IPOHE: ivy-leaf morning glory (Ipomoea hederacea), 14 days after application
[10] = KCHSC: kochia (Bassia scoparia), 14 days after application
[11] = ORYSA: rice (Oryza sativa), 14 days after application
[12] = SETFA: giant foxtail (Setaria faberi), 14 days after application
[13] = STEME: common chickweed (Stellaria media), 14 days after application
[14] = TRZAS: wheat, spring (Triticum aestivum), 14 days after application
[15] = ALOMY: blackgrass (Alopecurus myosuroides), 14 days after application, read-out: Visual Growth Reduction (%) 14 Days After Application, ALOMY
[16] = AMARE: redroot pigweed (Amaranthus retroflexus), 14 days after application, read-out: Visual Growth Reduction (%) 14 Days After Application, AMARE
[17] = AVEFA: wild oat (Avena fatua), 14 days after application, read-out: Visual Growth Reduction (%) 14 Days After Application, AVEFA
[18] = CHEAL: lambsquarters (Chenopodium album), 14 days after application, read-out: Visual Growth Reduction (%) 14 Days After Application, CHEAL
[19] = CIRAR: canada thistle (Cirsium arvense), 14 days after application, read-out: Visual Growth Reduction (%) 14 Days After Application, CIRAR
[20] = CYPES: yellow nutsedge (Cyperus esculentus), 14 days after application, read-out: Visual Growth Reduction (%) 14 Days After Application, CYPES
[21] = DIGSA: crabgrass (Digitaria sanguinalis), 14 days after application, read-out: Visual Growth Reduction (%) 14 Days After Application, DIGSA
[22] = ECHCG: barnyardgrass (Echinochloa crus-galli), 14 days after application, read-out: Visual Growth Reduction (%) 14 Days After Application, ECHCG
[23] = IPOHE: ivy-leaf morning glory (Ipomoea hederacea), 14 days after application, read-out: Visual Growth Reduction (%) 14 Days After Application, IPOHE
[24] = KCHSC: kochia (Bassia scoparia), 14 days after application, read-out: Visual Growth Reduction (%) 14 Days After Application, KCHSC
[25] = ORYSA: rice (Oryza sativa), 14 days after application, read-out: Visual Growth Reduction (%) 14 Days After Application, ORYSA
[26] = SETFA: giant foxtail (Setaria faberi), 14 days after application, read-out: Visual Growth Reduction (%) 14 Days After Application, SETFA
[27] = SORVU: grain sorghum (Sorghum vulgare), 14 days after application, read-out: Visual Growth Reduction (%) 14 Days After Application, SORVU
[28] = STEME: common chickweed (Stellaria media), 14 days after application, read-out: Visual Growth Reduction (%) 14 Days After Application, STEME
[29] = TRZAS: wheat, spring (Triticum aestivum), 14 days after application, read-out: Visual Growth Reduction (%) 14 Days After Application, TRZAS
[30] = blackgrass (Alopecurus myosuroides), 14 Days After Application, read-out: Visual Growth Reduction (%) ALOMY
[31] = canada thistle (Cirsium arvense), 14 Days After Application, read-out: Visual Growth Reduction (%) CIRAR
[32] = crabgrass (Digitaria sanguinalis), 14 Days After Application, read-out: Visual Growth Reduction (%) DIGSA
[33] = lambsquarters (Chenopodium album), 14 Days After Application, read-out: Visual Growth Reduction (%) CHEAL
[34] = redroot pigweed (Amaranthus retroflexus), 14 Days After Application, read-out: Visual Growth Reduction (%) AMARE
[35] = wild oat (Avena fatua), 14 Days After Application, read-out: Visual Growth Reduction (%) AVEFA
[36] = yellow nutsedge (Cyperus esculentus), 14 Days After Application, read-out: Visual Growth Reduction (%) CYPES

Row | SMILES | pest or weed control at 140 g/ha [15] [%] | pest or weed control at 140 g/ha [16] [%] | pest or weed control at 140 g/ha [17] [%] | pest or weed control at 140 g/ha [18] [%] | pest or weed control at 140 g/ha [19] [%] | pest or weed control at 140 g/ha [20] [%] | pest or weed control at 140 g/ha [21] [%] | pest or weed control at 140 g/ha [22] [%] | pest or weed control at 140 g/ha [23] [%] | pest or weed control at 140 g/ha [24] [%] | pest or weed control at 140 g/ha [25] [%] | pest or weed control at 140 g/ha [26] [%] | pest or weed control at 140 g/ha [27] [%] | pest or weed control at 140 g/ha [28] [%] | pest or weed control at 140 g/ha [29] [%] | further results
1 | COC(=O)c1nc(-c2ccc(Cl)c([N+](=O)[O-])c2)ccc1Cl [F83, Methyl 3-chloro-6-(4-chloro-3-nitrophenyl) picolinate] | – | – | – | – | – | – | – | – | – | – | – | – | – | – | – | Visual Growth Reduction (%) 14 Days After Application, ALOMY [1]: G (0-29); Visual Growth Reduction (%) 14 Days After Application, AMARE [2]: G (0-29); Visual Growth Reduction (%) 14 Days After Application, AVEFA [3]: G (0-29); Visual Growth Reduction (%) 14 Days After Application, CHEAL [4]: G (0-29); Visual Growth Reduction (%) 14 Days After Application, CIRAR [5]: G (0-29); Visual Growth Reduction (%) 14 Days After Application, CYPES [6]: G (0-29); Visual Growth Reduction (%) 14 Days After Application, DIGSA [7]: G (0-29); Visual Growth Reduction (%) 14 Days After Application, ECHCG [8]: G (0-29); Visual Growth Reduction (%) 14 Days After Application, IPOHE [9]: G (0-29); Visual Growth Reduction (%) 14 Days After Application, KCHSC [10]: G (0-29); Visual Growth Reduction (%) 14 Days After Application, ORYSA [11]: G (0-29); Visual Growth Reduction (%) 14 Days After Application, SETFA [12]: G (0-29); Visual Growth Reduction (%) 14 Days After Application, SORVU (14 days after application): G (0-29); Visual Growth Reduction (%) 14 Days After Application, STEME [13]: G (0-29); Visual Growth Reduction (%) 14 Days After Application, TRZAS [14]: G (0-29)
2 | COC(=O)c1nc(-c2ccc([N+](=O)[O-])cc2)c(F)cc1Cl [F197, Methyl 3-chloro-5-fluoro-6-(4-nitrophenyl) picolinate] | – | – | – | – | – | – | – | – | – | – | – | – | – | – | – | Visual Growth Reduction (%) 14 Days After Application, ALOMY [1]: G (0-29); Visual Growth Reduction (%) 14 Days After Application, AMARE [2]: G (0-29); Visual Growth Reduction (%) 14 Days After Application, AVEFA [3]: G (0-29); Visual Growth Reduction (%) 14 Days After Application, CHEAL [4]: E (45-59); Visual Growth Reduction (%) 14 Days After Application, CIRAR [5]: G (0-29); Visual Growth Reduction (%) 14 Days After Application, CYPES [6]: G (0-29); Visual Growth Reduction (%) 14 Days After Application, DIGSA [7]: F (30-44); Visual Growth Reduction (%) 14 Days After Application, ECHCG [8]: G (0-29); Visual Growth Reduction (%) 14 Days After Application, IPOHE [9]: D (60-74); Visual Growth Reduction (%) 14 Days After Application, KCHSC [10]: G (0-29); Visual Growth Reduction (%) 14 Days After Application, ORYSA [11]: G (0-29); Visual Growth Reduction (%) 14 Days After Application, SETFA [12]: G (0-29); Visual Growth Reduction (%) 14 Days After Application, SORVU (14 days after application): F (30-44); Visual Growth Reduction (%) 14 Days After Application, STEME [13]: G (0-29); Visual Growth Reduction (%) 14 Days After Application, TRZAS [14]: G (0-29)
3 | COCC(F)(F)c1ccc(-c2ccc(Cl)c(C(=O)O)n2)c(Cl)c1 [F179, 3-chloro-6-(2-chloro-4-(1,1-difluoro-2-methoxyethyl)phenyl)picolinic acid] | 0 to 29 | 60 to 74 | 0 to 29 | 0 to 29 | 0 to 29 | 0 to 29 | 0 to 29 | 0 to 29 | 95 to 100 | 60 to 74 | 0 to 29 | 0 to 29 | 0 to 29 | 0 to 29 | 0 to 29 | –
4 | COC(=O)c1nc(-c2cc(F)c(OC)cc2F)ccc1Cl [F291, Methyl 3-chloro-6-(2,5-difluoro-4-methoxyphenyl) picolinate] | – | – | – | – | – | – | – | 0 to 29 | 0 to 29 | 0 to 29 | 0 to 29 | 0 to 29 | 0 to 29 | 0 to 29 | 0 to 29 | pest or weed control at 140 g/ha [30]: 0 to 29%; pest or weed control at 140 g/ha [31]: 30 to 44%; pest or weed control at 140 g/ha [32]: 0 to 29%; pest or weed control at 140 g/ha [33]: 45 to 59%; pest or weed control at 140 g/ha [34]: 0 to 29%; pest or weed control at 140 g/ha [35]: 0 to 29%; pest or weed control at 140 g/ha [36]: 0 to 29%
5 | COC(=O)c1nc(-c2ccc3c(c2)OC(F)(F)O3)ccc1Cl [F64, Methyl 3-chloro-6-(2,2-difluorobenzo[d] [1,3]dioxol-5-yl) picolinate] | 0 to 29 | 45 to 59 | 0 to 29 | 60 to 74 | 0 to 29 | 60 to 74 | 85 to 94 | 0 to 29 | 95 to 100 | 0 to 29 | 0 to 29 | 0 to 29 | 60 to 74 | 0 to 29 | 0 to 29 | –
6 | COC(=O)c1nc(-c2ccc(C#N)cc2)c(F)cc1Cl [F168, Methyl 3-chloro-6-(4-cyanophenyl)-5-fluoropicolinate] | 0 to 29 | 30 to 44 | 0 to 29 | 45 to 59 | 0 to 29 | 0 to 29 | 60 to 74 | 30 to 44 | 60 to 74 | 0 to 29 | 0 to 29 | 30 to 44 | 30 to 44 | 0 to 29 | 0 to 29 | –
7 | O=C(O)c1nc(-c2ccc(Cl)c(F)c2F)ccc1Cl [F70, 3-Chloro-6-(4-chloro-2,3-difluorophenyl) picolinic acid] | 0 to 29 | 95 to 100 | 0 to 29 | 95 to 100 | 75 to 84 | 75 to 84 | 60 to 74 | 45 to 59 | 85 to 94 | – | 0 to 29 | 30 to 44 | 85 to 94 | 60 to 74 | – | –
8 | CCCCOC(=O)c1nc(-c2ccc(Cl)c(OC)c2F)ccc1Cl [F280, Butyl 3-chloro-6-(4-chloro-2-fluoro-3-methoxyphenyl) picolinate] | – | – | – | – | – | – | – | 0 to 29 | 30 to 44 | 60 to 74 | 0 to 29 | 0 to 29 | 0 to 29 | 0 to 29 | 0 to 29 | pest or weed control at 140 g/ha [30]: 0 to 29%; pest or weed control at 140 g/ha [31]: 30 to 44%; pest or weed control at 140 g/ha [32]: 0 to 29%; pest or weed control at 140 g/ha [33]: 85 to 94%; pest or weed control at 140 g/ha [34]: 30 to 44%; pest or weed control at 140 g/ha [35]: 0 to 29%; pest or weed control at 140 g/ha [36]: 60 to 74%
